Test results as given in patent US12514909B2, “Lactate-protected hypoglycemia to treat glycolysis dependent pathological conditions, in particular cancer” (priority 2018, dated 2026).

How the values were obtained:
[1] = Lactate-protected hypoglycemia (HG-HL) in anesthetized pig with extracorporeal HLa infusion; type: in vivo
Experimental: Then, after hyperlactatemia was established, an insulin bolus and continuous infusion of insulin were titrated to achieve a [Glu] of between 1.3 and 1.7 mmol/L (25 to 30 mg/dL). Once the HG (1.5 mmol/L) HL(8 mmol/L) state was achieved, this was maintained for 4 h. Then normoglycemia was allowed to return.
This example entails achievement and sustaining [Glu] at ˜1.5 mmol/L for 4 hours in a pig under a [Lac] of 8 mmol/L.
The preparation started the day before the intervention at 17:00. No food was given to the pig after this time.
On the morning of the intervention the pig ate a small fatty snack combined with 500 mg of metformin. The inhibitory action of metformin on gluconeogenesis is expected to start within 3 h.
A bolus of 0.03 mg/kg medetomidine, a bolus of 4 mg/kg tiletamine-zolazepam and a bolus of 2 to 2.5 mg/kg 1% propofol were delivered intravenously. After intubation, volume-controlled ventilation was started. The respiratory rate was adjusted to target etCO2of 35 to 45 mmHg and a tidal volume of 8 to 10 ml/kg. The tidal volume was later adjusted when required on etCO2, pCO2 and pH. Then a 2-lumen dialysis catheter was surgically placed into the internal jugular vein. An unfractionated heparin bolus of 5000 IU (200 IU/kg) was administered and CVVH was initiated with unfractionated heparin (400 IU/ml) at 1 ml/h, titrated to an activated clotting time (ACT) of 250 to 300 seconds.
Counter-response inhibition was achieved by subsequent intravenous delivery of labetalol (5 mg/ml) at 3 ml/h titrated to a relative heart rate reduction of 10/m, and an intravenous bolus of 25 μg octreotide (10 μg/ml), then the octreotide continuous infusion was proportionally adjusted to keep [Glu] in the desired hypoglycemic range.
Depending on the subsequent [Glu], insulin infusion rates were varied between 0 to 60 U/h. If necessary, an additional bolus dose of insulin was given at least 30 minutes after the initial delivery using the same criteria as described before.
Once both a [Glu] of 1.3 to 1.7 and a [Lac] of 8 to 10 mmol/L was reached, this HG(1.5)HL(8) state was maintained for 4 hours using the clamping technique. Approximately halfway during the HG(1.5)HL(8)-phase the octreotide infusion was stopped as the T1/2 of octreotide is longer than T^1/2 of insulin and because sustained suppression of the hypoglycemic counter response by octreotide might prolong the duration of glucose 50% support during the normoglycemia restoration phase.
During the HG-HL phase, sliding scale adjustments of insulin and glucose 50% pumps were executed.
The glucose 50% infusion rate was adjusted and eventually tapered to zero until stable normoglycemia was achieved.

[2] = cited from earlier work

Row | SMILES | arterial pH and sodium levels throughout the experiment ([1]; 30 kg pig, 40% HLa via veno-venous extracorporeal circuit, [Lac] 8 mmol/L, [Glu] ~1.5 mmol/L for 4 h, with insulin, glucose 50%, octreotide, labetalol, metformin) | hemodynamic instabilities, electrocardiographic or rhythm disturbances ([1]; 30 kg pig, HG(1.5)HL(8) state for 4 h) | time after end of the HG-HL-phase until normoglycemia without exogenous glucose or lactate support ([1]; 30 kg pig, after 4 h HG(1.5)HL(8)) [min] | metabolic alkalosis or hypernatremia on administration of high doses ([1]; high doses of HLa instead of NaLa) | side effects of intravenous administration of large amounts [2]
1 | CC(O)C(=O)O (centres unmarked) [HLa, lactic acid] | maintained within the desired range | no hemodynamic instabilities, electrocardiographic or rhythm disturbances were observed | 90 | did not lead to metabolic alkalosis or hypernatremia | –
2 | CC(O)C(=O)[O-].[Na+] (centres unmarked) [sodium lactate] | – | – | – | – | systemic metabolic alkalosis and hypernatremia
